This is an account of results in patent US20190119270A1, “N-Oxide Compound and Its Use in Treating Cancer” (AstraZeneca AB, priority 2016, published 2019).

Each structure is given as a SMILES string. pIC50: −log10 of the molar value.

The pIC50 is the negative decadic logarithm of the IC50, by convention in mol/L.

What all share (format): cell-based
For one assay, the target named is T1, mTOR (Homo sapiens, UniProt P42345).
T1 construct: endogenous in cells; host or cells: MDA-MB-468 cells
Briefly: mTOR cellular potency assay (phospho-AKT Ser473 in MDA-MB-468 cells). To be noted: 2 hours, phospho-AKT (Ser473), protocol A or B; read-out: Assay d) mTOR Cell IC50. How it is done: The phospho-AKTser473 cell assay was performed in the MDA-MB-468 cell line, a PTEN null breast adenocarcinoma human cell line. As a consequence of the lack of PTEN, pAKT is constitutively activated which eliminates the requirement for stimulation to induce phosphorylation.
MDA-MB-468 cells were cultured in cell media composed of DMEM (Dulbecco's modified Eagle's medium #D6546)), 10% (v/v) Foetal Calf Serum and 1% (v/v) L-Glutamine. After harvesting, cells were dispensed into black, 384-well Costar plates (#3712, Corning) to give 1500 cells per well in a total volume of 40 μl cell media, and were incubated overnight at 37° C., 90% relative humidity and 5% CO2 in a rotating incubator. […]
Stained cell plates were covered with black seals, and then read on the Acumen (TTP Labtech) plate reader. The primary channel (green fluorescence, 488 nm) is used to set the intensity settings for the max/min cut off to allow for weekly variation in staining and the ‘AKT+: No of objects (No)’ data is used for the analysis. Data was analysed and IC50s were calculated using Genedata Screener® software. […]
Stained cell plates were covered with black seals, and then read on the Cell Insight imaging platform (Thermo Scientific), with a 10× objective. […] The secondary channel (Green […], BGRFR_485_20) measures pAKT staining Data was analysed and IC5os were calculated using Genedata Screener® software.

Another assay concerns the target T2, ATR (Homo sapiens, UniProt Q13535).
T2 construct: endogenous in cells; host or cells: HT29 cells (ECACC #85061109)
Briefly: ATR cellular potency assay (pChk1 Ser345 in HT29 cells with 4NQO). As to conditions: pChk1 (Ser 345); read-out: Assay b) ATR Cell IC50. An excerpt: ATR is a PI 3-kinase-related kinase which phosphorylates multiple substrates on serine or threonine residues in response to DNA damage during or replication blocks. Chk1, a downstream protein kinase of ATR, plays a key role in DNA damage checkpoint control. Activation of Chk1 involves phosphorylation of Ser317 and Ser345 (the latter regarded as the preferential target for phosphorylation/activation by ATR). This was a cell based assay to measure inhibition of ATR kinase, by measuring a decrease in phosphorylation of Chk1 (Ser 345) in HT29 cells, following treatment with compound of Formula (I) and the UV mimetic 4NQO (Sigma #N8141).
HT29 cells (ECACC #85061109) were seeded into 384 well assay plates (Costar #3712) at a density of 6000 cells/well in 40 μl EMEM medium containing 1% L glutamine and 10% FBS and allowed to adhere overnight. […]
Phospho-Chk1 Ser 345 antibody (Cell Signalling Technology #2348) was diluted 150 fold in PBS containing 0.05% polysorbate/Tween and 15 μl was added to each well and incubated over night at r.t. […] After 2 h incubation at r.t., the plates were washed three times with 50 μl/well PBS, using a Biotek EL405 plate washer, and plates were then sealed with black plate seals until read. Plates were read using an ArrayScan VTI instrument, using an XF53 filter with 10× objective. […]

In the next assay the target is PI3Kα (Homo sapiens, UniProt P42336). As to the kind of experiment: PI3K cellular potency assay (phospho-Akt T308 ELISA in BT474 cells). As to conditions: 2 h, phospho-Akt (T308); read-out: Assay c) PI3Kα Cell IC50. An excerpt:
This assay was used to measure PI3K-a inhibition in cells. PDK1 was identified as the upstream activation loop kinase of protein kinase B (Akt1), which is essential for the activation of PKB. Activation of the lipid kinase phosphoinositide 3 kinase (PI3K) is critical for the activation of PKB by PDK1.
Following ligand stimulation of receptor tyrosine kinases, PI3K is activated, which converts PIP2 to PIP3, which is bound by the PH domain of PDK1 resulting in recruitment of PDK1 to the plasma membrane where it phosphorylates AKT at Thr308 in the activation loop.
The aim of this cell-based mode of action assay is to identify compounds that inhibit PDK activity or recruitment of PDK1 to membrane by inhibiting PI3K activity. Phosphorylation of phospho-Akt (T308) in BT474c cells following treatment with compounds for 2 h is a direct measure of PDK1 and indirect measure of PI3K activity. […]
After 20 minutes, the cell lysates were transferred into ELISA plates (Greiner #781077) which had been pre-coated with an anti total-AKT antibody in PBS buffer and non-specific binding was blocked with 1% BSA in PBS containing 0.05% Tween 20. […] Plates were read using a Tecan Safire plate reader using 325 nm excitation and 420 nm emission wavelengths respectively. […]
(In general: ELISA stands for enzyme-linked immunosorbent assay.)

Another assay addresses T3, ATM (Homo sapiens, UniProt Q13315).
T3 construct: endogenous in cells; host or cells: HT29 cells (ECACC #85061109)
Briefly: ATM cellular potency assay (pATM Ser1981 in irradiated HT29 cells). To be noted: X-ray irradiation, pATM (Ser1981); read-out: Assay a) ATM Cell IC50. An excerpt: Cellular irradiation induces DNA double strand breaks and rapid intermolecular autophosphorylation of serine 1981 that causes dimer dissociation and initiates cellular ATM kinase activity. Most ATM molecules in the cell are rapidly phosphorylated on this site after doses of radiation as low as 0.5 Gy, and binding of a phosphospecific antibody is detectable after the introduction of only a few DNA double-strand breaks in the cell.
The rationale of the pATM assay is to identify inhibitors of ATM in cells. HT29 cells are incubated with test compounds for lhr prior to X-ray-irradiation. 1 h later the cells are fixed and stained for pATM (Ser1981). The fluorescence is read on the arrayscan imaging platform.
HT29 cells (ECACC #85061109) were seeded into 384 well assay plates (Costar #3712) at a density of 3500 cells/well in 40 μl EMEM medium containing 1% L glutamine and 10% FBS and allowed to adhere overnight. […]
Phospho-ATM Ser1981 antibody (Millipore #MAB3806) was diluted 10000 fold in PBS containing 0.05% polysorbate/Tween and 3% BSA and 20 μl was added to each well and incubated over night at r.t. […] After 1 h incubation at r.t., the plates were washed three times with 50 μl/well PBS, using a Biotek EL405 plate washer, and plates were sealed and kept in PBS at 4° C. until read. Plates were read using an ArrayScan VTI instrument, using an XF53 filter with 10× objective. […]

T3 sequence (Q13315 whole entry): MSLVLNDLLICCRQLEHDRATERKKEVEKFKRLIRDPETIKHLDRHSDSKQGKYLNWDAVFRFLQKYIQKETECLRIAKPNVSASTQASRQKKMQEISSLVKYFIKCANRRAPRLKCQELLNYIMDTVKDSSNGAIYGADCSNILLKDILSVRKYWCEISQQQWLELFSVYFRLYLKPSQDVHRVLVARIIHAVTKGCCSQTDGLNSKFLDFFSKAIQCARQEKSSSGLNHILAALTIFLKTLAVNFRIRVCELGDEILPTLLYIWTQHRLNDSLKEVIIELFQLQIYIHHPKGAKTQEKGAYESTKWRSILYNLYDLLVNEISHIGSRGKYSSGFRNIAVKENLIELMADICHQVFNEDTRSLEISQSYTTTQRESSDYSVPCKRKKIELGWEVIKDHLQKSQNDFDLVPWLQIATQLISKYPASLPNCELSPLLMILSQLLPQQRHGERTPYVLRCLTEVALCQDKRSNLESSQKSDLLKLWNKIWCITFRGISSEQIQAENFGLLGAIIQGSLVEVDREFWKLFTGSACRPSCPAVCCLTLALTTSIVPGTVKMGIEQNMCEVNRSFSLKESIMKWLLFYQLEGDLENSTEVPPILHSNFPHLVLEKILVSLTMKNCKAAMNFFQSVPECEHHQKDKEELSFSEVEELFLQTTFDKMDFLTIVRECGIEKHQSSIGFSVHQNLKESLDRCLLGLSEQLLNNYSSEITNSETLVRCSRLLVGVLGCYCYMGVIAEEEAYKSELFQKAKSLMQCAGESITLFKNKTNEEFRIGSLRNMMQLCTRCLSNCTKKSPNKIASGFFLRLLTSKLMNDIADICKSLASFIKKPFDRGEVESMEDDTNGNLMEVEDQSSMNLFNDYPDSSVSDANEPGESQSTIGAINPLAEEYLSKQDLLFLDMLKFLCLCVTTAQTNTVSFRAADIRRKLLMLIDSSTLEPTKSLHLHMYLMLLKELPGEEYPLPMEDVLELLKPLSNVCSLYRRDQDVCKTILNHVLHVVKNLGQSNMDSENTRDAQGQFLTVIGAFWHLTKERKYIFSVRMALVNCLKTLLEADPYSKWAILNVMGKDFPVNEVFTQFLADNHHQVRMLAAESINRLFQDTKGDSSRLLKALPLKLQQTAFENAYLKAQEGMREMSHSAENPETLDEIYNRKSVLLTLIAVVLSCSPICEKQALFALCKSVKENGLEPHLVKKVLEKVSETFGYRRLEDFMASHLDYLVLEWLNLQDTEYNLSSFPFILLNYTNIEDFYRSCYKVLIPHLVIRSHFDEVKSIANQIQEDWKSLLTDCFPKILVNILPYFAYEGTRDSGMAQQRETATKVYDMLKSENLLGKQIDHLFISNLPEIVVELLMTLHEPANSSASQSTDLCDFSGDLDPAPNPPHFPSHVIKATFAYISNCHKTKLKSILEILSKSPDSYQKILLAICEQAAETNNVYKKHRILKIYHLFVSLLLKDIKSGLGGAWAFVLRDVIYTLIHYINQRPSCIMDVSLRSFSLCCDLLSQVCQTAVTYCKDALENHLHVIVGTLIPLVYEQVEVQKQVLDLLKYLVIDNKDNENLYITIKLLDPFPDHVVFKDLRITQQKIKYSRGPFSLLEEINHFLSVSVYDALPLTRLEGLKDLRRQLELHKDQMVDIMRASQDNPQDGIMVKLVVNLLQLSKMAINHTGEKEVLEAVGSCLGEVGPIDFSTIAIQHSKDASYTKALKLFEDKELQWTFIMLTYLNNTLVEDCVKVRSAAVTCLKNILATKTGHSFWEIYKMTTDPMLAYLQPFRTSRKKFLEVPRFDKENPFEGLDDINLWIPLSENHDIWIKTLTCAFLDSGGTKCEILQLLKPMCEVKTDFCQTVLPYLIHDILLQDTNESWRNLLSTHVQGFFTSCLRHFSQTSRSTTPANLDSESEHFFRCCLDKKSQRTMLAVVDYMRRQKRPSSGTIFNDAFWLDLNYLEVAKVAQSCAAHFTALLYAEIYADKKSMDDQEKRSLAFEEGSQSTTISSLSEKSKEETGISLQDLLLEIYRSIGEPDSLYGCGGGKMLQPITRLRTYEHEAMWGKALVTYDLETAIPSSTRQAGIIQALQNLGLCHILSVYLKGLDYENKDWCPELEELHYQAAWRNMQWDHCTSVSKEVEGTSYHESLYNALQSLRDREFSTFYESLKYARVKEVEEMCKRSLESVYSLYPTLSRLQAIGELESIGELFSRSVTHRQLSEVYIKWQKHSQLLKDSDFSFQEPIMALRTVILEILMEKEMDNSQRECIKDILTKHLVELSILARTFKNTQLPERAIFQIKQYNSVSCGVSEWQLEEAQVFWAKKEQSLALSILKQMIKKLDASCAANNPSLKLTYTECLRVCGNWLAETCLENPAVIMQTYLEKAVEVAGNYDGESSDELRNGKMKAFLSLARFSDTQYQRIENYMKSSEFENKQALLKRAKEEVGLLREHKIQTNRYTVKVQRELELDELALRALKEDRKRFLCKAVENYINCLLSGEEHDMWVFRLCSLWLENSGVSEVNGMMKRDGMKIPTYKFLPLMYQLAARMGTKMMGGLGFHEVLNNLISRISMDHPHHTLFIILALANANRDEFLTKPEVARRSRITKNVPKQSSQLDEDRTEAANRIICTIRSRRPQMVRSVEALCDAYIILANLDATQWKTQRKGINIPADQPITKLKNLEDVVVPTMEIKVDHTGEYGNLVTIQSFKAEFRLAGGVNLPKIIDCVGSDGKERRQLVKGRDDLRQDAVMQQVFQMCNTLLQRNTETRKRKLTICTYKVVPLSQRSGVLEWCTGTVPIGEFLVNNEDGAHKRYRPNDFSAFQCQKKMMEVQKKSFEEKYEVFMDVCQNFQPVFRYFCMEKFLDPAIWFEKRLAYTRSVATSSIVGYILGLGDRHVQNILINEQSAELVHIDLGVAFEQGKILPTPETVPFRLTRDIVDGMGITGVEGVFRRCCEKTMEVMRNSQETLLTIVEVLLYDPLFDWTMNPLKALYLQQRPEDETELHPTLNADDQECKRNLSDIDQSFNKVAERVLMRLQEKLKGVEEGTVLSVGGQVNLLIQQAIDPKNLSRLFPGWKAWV
Sequence of PI3Kα (P27986 2-724): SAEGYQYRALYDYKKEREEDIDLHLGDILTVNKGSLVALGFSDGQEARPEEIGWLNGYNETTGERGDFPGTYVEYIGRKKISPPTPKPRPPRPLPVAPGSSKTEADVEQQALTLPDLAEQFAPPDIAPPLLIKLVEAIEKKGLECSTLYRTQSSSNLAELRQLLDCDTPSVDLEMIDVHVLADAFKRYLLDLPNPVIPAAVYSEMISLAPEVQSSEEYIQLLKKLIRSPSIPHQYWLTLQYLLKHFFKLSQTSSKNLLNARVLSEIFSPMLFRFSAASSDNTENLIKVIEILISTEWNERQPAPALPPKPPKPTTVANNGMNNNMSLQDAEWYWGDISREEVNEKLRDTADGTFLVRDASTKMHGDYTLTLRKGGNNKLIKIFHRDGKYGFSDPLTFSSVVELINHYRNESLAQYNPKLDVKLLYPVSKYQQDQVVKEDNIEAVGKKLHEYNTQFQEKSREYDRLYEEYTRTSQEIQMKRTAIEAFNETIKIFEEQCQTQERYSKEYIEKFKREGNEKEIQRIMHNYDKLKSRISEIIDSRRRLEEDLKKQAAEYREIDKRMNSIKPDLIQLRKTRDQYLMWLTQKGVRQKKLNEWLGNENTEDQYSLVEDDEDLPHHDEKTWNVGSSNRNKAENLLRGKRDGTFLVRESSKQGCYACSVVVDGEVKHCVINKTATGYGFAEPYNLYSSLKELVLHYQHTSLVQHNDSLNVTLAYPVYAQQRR
Sequence of PI3Kα (P42336 whole entry): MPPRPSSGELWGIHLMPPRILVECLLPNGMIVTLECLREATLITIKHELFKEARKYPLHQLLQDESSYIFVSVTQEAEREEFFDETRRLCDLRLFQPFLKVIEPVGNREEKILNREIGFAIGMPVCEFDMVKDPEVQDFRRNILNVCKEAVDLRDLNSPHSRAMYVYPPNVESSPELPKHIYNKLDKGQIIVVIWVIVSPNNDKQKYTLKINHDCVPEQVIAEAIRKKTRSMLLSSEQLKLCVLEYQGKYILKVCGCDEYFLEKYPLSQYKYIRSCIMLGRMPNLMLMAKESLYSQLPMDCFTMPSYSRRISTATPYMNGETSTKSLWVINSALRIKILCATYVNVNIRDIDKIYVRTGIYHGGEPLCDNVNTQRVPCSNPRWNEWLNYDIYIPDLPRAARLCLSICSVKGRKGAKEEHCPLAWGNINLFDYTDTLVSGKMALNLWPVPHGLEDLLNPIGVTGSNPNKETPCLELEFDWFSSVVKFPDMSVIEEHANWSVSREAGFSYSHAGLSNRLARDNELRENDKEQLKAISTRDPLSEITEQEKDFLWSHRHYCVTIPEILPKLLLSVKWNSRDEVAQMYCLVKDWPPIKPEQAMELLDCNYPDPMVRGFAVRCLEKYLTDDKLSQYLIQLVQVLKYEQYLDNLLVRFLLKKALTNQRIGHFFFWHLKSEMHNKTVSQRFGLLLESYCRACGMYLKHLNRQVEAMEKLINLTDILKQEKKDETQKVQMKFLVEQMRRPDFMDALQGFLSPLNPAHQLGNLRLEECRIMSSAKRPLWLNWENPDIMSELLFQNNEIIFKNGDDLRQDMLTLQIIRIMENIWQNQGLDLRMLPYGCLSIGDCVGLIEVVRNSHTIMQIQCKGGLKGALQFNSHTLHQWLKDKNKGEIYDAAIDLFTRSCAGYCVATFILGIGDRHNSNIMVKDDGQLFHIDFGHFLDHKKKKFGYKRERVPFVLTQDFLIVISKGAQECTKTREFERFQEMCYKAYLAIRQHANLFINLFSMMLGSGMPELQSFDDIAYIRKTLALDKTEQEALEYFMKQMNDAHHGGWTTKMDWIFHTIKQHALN

For the molecule `Cn1c(=O)n(C2CCOCC2)c2c3cc(-c4ccc(OCCC[N+](C)(C)[O-])nc4)ccc3ncc21` [Example 1], the pIC50 on mTOR is below 5.90; at ATR, 4.99; at PI3Kα it was 4.75; at ATM it was 8.27.
